Results on 7 molecules are retold here after patent US11229628B2, “TRPA1 and TRPV4 inhibitors and methods of using the same for organ-specific inflammation and itch” (Duke University, priority 2015, dated 2022).

For assay [1], the system named is primary mouse epidermal keratinocytes (1° MK). The assay is described as follows: UVB-evoked Ca++ signaling in primary mouse keratinocytes (fluo-4 imaging). In kind it is cell-based. Particulars: for UVB-evoked Ca++ signaling: fluo-4 ΔF/F0, GSK205 20 μM; for ET1-augmented UVB-evoked Ca++ signaling: UVB and ET1 co-exposure. On the procedure:
Ca++ imaging of 1° MK was conducted following routine procedures. For UVB stimulation, a customized device was built. The system comprised a printed circuit board for electrical interconnects and mechanical support and an ultraviolet light-emitting diode (UV LED).
The operating wavelength was 295 nm (FIG. 2A), with a full-width half-max of 12 nm. The optical power was 500 mW. The focal point was aimed at the plane of the upper surface of the quartz coverslip, which was used to minimize UV absorption along the optical path towards the cells (FIG. 2A-C). The optical intensity at the focal point was estimated to be 150 mW/mm^2.
(§1) Ca++ imaging of mouse 1° MK in response to chemical activation of TRPV4 was conducted after loading with 2 μM fura2-AM, following a ratiometric Ca2+ imaging protocol with 340/380 nm […] for dual excitation. Ratios of emissions were acquired at 0.5 Hz. ΔR/R0 was determined as the fraction of the increase of a given ratio over baseline ratio, divided by baseline ratio. For stimulation of cells with UVB, where fura-2 was not suitable because of the proximity of stimulation with 340/380 nm and 295 nm, 2 μM fluo4-AM was used instead. Ca++ imaging was carried out at 488 nm excitation, acquisition of emissions at 0.5 Hz, expressed as ΔF/F0. In the custom-built UV optical system, UV LEDs were capped with a ball lens, a transparent optical window in the shape of a hemispherical lens (FIG. 2B). The LED output optical beam focused at 15-20 mm from the lens, with a spot diameter of approximately 1.5˜2.0 mm (FIG. 2C). […] The thermal equilibration stage was set for physiological temperature.
To further dissect the underlying mechanisms involved, we built a customized device for specific and narrow-band UVB stimulation of primary mouse epidermal keratinocytes (1° MK) cultured in vitro (FIG. 6A-B and FIG. 2A-D). This allowed use of the Ca++ sensitive dye, fluo-4, and assessment of 1° MK's Ca++ dynamics following UVB exposure (FIG. 6B). The elicited Ca++ signal was obliterated by a UV-refracting glass coverslip, underscoring the strict dependence of the calcium response on UVB (FIG. 6C and FIG. 2A).

Assay [2] concerns ET1 secretion by 1° MK. The assay is described as follows: ET1 secretion by non-stimulated 1° MK (ELISA of supernatant). The class given is cell-based, mouse. On the procedure: FIG. 8: Central role for KC TRPV4 in UVB-evoked Ca^++ signaling and nocifensive behavior—ET1-related supplementary findings. (A) Augmentation of GSK101-evoked Ca^++ signaling by ET1. Shown are averaged Ca^++ measurements (fura-2) in response to 5 nM GSK101. […] (B) ET1 secretion by non-stimulated 1° MK depends on TRPV4 and PLC. Shown are relative ET1 concentrations (determined by ELISA, pg/mL; vehicle-treated and WT control normalized to 100) in supernatant of non-stimulated 1° MK. Note the clear dependence on TRPV4, as indicated by a 50% reduction in Trpv4^−/− 1° MK. […] In addition, PLC-inhibitor robustly affects ET1 secretion in WT and Trpv4^−/− 1° MK. (C) ET1 expression by UVB-exposed 1° MK depends on TRPV4 and PLC—immunocytochemistry. Shown is specific ET1 immunolabeling in 1° MK, exposed to UVB using the UVB-LEDs, as for Ca^++ imaging. Use of the UVB-LED device precluded application of a ET1 ELISA, only irradiated cells could be examined. […] (D) ET1 expression by UVB-exposed 1° MK depends on TRPV4 and PLC—quantification of immunocytochemistry.
(§2) We tested whether UVB causes ET1 upregulation in a TRPV4-dependent manner. Given the exquisite wave-length dependence of ET1 expression in 1° MKs, we resorted to the UVB-LED device as for Ca++ imaging (FIG. 6A and FIG. 2A-D). […] Consistent with its effects on UVB-evoked Ca++ transients, PLC-inhibitor U73122 also dampened ET1 expression. […] This leads to TRPV4-dependent Ca++ signaling, which in turn amplifies ET1 signaling in a paracrine/autocrine fashion.
(In general: ELISA stands for enzyme-linked immunosorbent assay.)

Assay [3] has as its system ET1 expression in 1° MK. Put plainly: ET1 expression by UVB-exposed 1° MK (immunocytochemistry). In kind it is cell-based, mouse. The following applies: 295 nm UVB-LED, 24 hours. How it is done:
1° MK were exposed to UVB using the UV optical system (295 nm LED). 24 hours later the cells were fixed and fluorescently immunolabeled for ET1. Digital images were captured and subjected to morphometry.
Mouse keratinocytes were cultured on collagen coated quartz coverslips and then stimulated from the bottom using the previously mentioned UV optical system using the 295 nm LED. 24 hours later the cells were fixed in 4% formaldehyde in PBS for 20 minutes, permeabilized with 0.1% Triton X-100 in PBS for 10 minutes, washed, then blocked in 10% normal goat serum in PBS for 45 minutes. Coverslips were incubated overnight with primary antibody mouse anti-ET1 (1:200; Abcam), washed three times in PBS and incubated with secondary antibody for 2 hours at 25° C. Coverslips were washed three times in PBS, once with double-distilled H2O. Digital images were captured using a 40× immersion lens on the BX61 Olympus upright microscope. Morphometric analysis was conducted using ImageJ freeware with tailored regions-of-interest.
as §2

The target in assay [4] is T1, TRPV4 (Mus musculus, UniProt Q9EPK8).
T1 construct: Primary mouse keratinocytes were derived from back skin of newborn mice; endogenous in cells; host or cells: primary mouse epidermal keratinocytes (1° MK), wild type
T1 sequence (Q9EPK8 whole entry): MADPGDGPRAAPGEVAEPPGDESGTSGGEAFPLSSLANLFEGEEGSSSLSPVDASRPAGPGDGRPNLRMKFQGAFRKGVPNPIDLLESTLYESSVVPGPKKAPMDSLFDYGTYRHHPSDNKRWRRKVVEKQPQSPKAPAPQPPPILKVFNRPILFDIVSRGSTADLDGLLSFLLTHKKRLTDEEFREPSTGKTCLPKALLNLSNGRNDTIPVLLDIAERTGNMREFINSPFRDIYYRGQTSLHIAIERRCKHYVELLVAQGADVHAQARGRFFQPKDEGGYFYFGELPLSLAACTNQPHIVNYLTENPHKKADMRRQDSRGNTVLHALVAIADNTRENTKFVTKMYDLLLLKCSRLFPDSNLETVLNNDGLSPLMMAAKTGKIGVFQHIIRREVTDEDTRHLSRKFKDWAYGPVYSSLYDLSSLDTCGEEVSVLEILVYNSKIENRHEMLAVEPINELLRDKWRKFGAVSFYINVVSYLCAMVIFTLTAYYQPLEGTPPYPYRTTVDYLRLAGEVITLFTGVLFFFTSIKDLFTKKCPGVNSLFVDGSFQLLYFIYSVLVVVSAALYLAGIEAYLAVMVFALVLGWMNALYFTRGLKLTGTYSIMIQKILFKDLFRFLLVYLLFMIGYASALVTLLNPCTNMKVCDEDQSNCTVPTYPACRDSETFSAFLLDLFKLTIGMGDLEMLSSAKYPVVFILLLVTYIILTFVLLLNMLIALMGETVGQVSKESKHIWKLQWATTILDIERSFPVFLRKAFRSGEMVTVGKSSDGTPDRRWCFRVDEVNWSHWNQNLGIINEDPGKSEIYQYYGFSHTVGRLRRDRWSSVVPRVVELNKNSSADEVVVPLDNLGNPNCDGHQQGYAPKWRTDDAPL
Put plainly: 4α-PDD-evoked Ca++ signaling in 1° MK with ET1 co-application. The class given is cell-based. The following applies: fura-2, ET1 co-application. How it is done:
FIG. 7: Central role for keratinocyte TRPV4 in UVB-evoked Ca++ signaling and nocifensive behavior—effects of ET1. (A) Effects of ET1 on UVB-evoked Ca++ signaling in 1° MKs. […] Panel (iii) illustrates the complete elimination of the ET1-augmented Ca++ transients when both subtypes of ET(R) are blocked. (B) 4α-PDD-evoked Ca++ signaling in 1° MKs—ET1-related findings. […] Quantifications are for n=3 mice/group. *** denotes statistically significant (p<0.001, t-test). (D) Nocifensive behavior in response to ET1 footpad injection depends on epidermal TRPV4. Bar diagram summarizes behavioral findings for Trpv4−/−vs. WT and for oil-treated vs. tam-treated iKO mice. […] Trpv4−/− and tam-treated iKO mice fail to respond; n≥7 mice/group, ** p<0.01, ANOVA.
Ca++ imaging of mouse 1° MK in response to chemical activation of TRPV4 was conducted after loading with 2 μM fura2-AM, following a ratiometric Ca2+ imaging protocol with 340/380 nm […] for dual excitation. Ratios of emissions were acquired at 0.5 Hz. ΔR/R0 was determined as the fraction of the increase of a given ratio over baseline ratio, divided by baseline ratio. For stimulation of cells with UVB, where fura-2 was not suitable because of the proximity of stimulation with 340/380 nm and 295 nm, 2 μM fluo4-AM was used instead. Ca++ imaging was carried out at 488 nm excitation, acquisition of emissions at 0.5 Hz, expressed as ΔF/F0. […]

In assay [5] the target is T1, TRPV4. Put plainly: GSK101-evoked Ca++ transient in 1° MK (fura-2). In kind it is cell-based. The following applies: 5 nM GSK101. How it is done:
as §1, with “temperature. We confirmed the non-thermal nature of UVB stimulation using the customized 295 nm LED device in a dedicated experiment (FIG. 2D), thus confirming the specific modality of stimulation as UVB.” for “temperature.”
We obtained corroborating findings by chemically activating TRPV4 with GSK101, which can directly stimulate TRPV4 in WT 1° MK. […]

Entries after “also recorded” stand apart in the source; their conditions may differ. Where a SMILES comes first, the peptide text is derived from it. [ ]: non-standard residue; d: D form.

Turning to `COc1ccc2c(c1)CC[C@@H]1[C@@H]2CC[C@]2(C)[C@@H](NCCCCCCN3C(=O)C=CC3=O)CC[C@@H]12` [Compound U73122], the “UVB-evoked Ca++ signaling” value in assay [1] is reported as “virtually eliminated; also recorded: strongly reduced”. In addition, the “ET1 secretion by non-stimulated 1° MK” value in assay [2] is listed as “down-regulation of ET1 secretion”. Moreover, in assay [3], the “ET1 immunoreactivity in UVB-exposed 1° MK” value (from here on “ET1 immunoreactivity”) is listed as “dampened; also recorded: significant down-regulation”.

In the case of `CC(C)NCCN(C(C)C)S(=O)(=O)c1ccc(Cl)cc1Cl` [RN1734], in assay [2], the “ET1 secretion by non-stimulated 1° MK” value is listed as “significant down-regulation”. Also, in assay [3], the “ET1 immunoreactivity” value is “diminished; also recorded: significant down-regulation”.

In the case of `C=C(C)CCO[P@@](=O)(O)OP(=O)(O)O` [IPP, isopentenyl pyrophosphate], the “UVB-evoked Ca++ signaling” value in assay [1] is on record as “no effect; also recorded: not inhibited”.

Consider `CC(C)C[C@@H]1NC(=O)[C@@H](C(C)C)NC(=O)[C@@H]2CCCN2C(=O)[C@@H](CC(=O)O)NC(=O)[C@@H](Cc2c[nH]c3ccccc23)NC1=O` [BQ123] (cyclo(L[dW][dD]P[dV])), for which, in assay [1], the “ET1-augmented UVB-evoked Ca++ signaling” value is on record as “attenuated”.

For the molecule endothelin-1 [ET1], in assay [4], the “4α-PDD-evoked Ca++ response” value is recorded as “significant increase”. Moreover, the “UVB-evoked Ca++ signaling” value in assay [1] was “significant increase; also recorded: augmentation”. In addition, in assay [5], the “GSK101-evoked Ca++ signaling on co-exposure to ET1” value is “augmented; also recorded: increase in signal”.

With `O=C(O)C(Cc1ccc2c(c1)oc1ccccc12)NCP(=O)(O)O` (centres unmarked) [CGS35066], the “UVB-evoked Ca++ signaling” value in assay [1] is “significantly diminished; also recorded: significant attenuation”. In assay [2], the “ET1 secretion by non-stimulated 1° MK” value is given as “down-regulation of ET1 secretion”. Moreover, in assay [3], the “ET1 immunoreactivity” value is “significant down-regulation”.

For the molecule `CCCC[C@@H](NC(=O)[C@@H](Cc1cn(C(=O)OC)c2ccccc12)NC(=O)[C@H](CC(C)(C)C)NC(=O)N1[C@H](C)CCC[C@@H]1C)C(=O)O` [BQ788], the “ET1-augmented UVB-evoked Ca++ signaling” value in assay [1] is listed as “attenuated”.
